ChEMBL document CHEMBL1132070, “Piperidinyl-3-phosphinic acids as novel uptake inhibitors of the neurotransmitter gamma-aminobutyric acid (GABA)” (Bioorg Med Chem Lett, 1999)

Species: Rattus norvegicus
Test: Inhibition of [3H]GABA (gamma amino butyric acid) uptake in vitro in rat brain synaptosomes
Type: functional

Row | IC50 [µM] | SMILES
1 | 53 | O=[PH](O)C1CCCN(CCC=C(c2ccccc2)c2ccccc2)C1 (stereo not given)
2 | 0.1 | O=C(O)C1CCCN(CCC=C(c2ccccc2)c2ccccc2)C1 (stereo not given)
3 | 4 | O=C(O)C1CCCNC1 (stereo not given) [NIPECOTIC ACID]

Row | SMILES | IC50 [µM]
4 | O=[PH](O)C1CCCNC1 (stereo not given) | 24
5 | CP(=O)(O)C1CCCNC1 (stereo not given) | > 1000
